Measured values reported in patent US20250018019A1, “TREATMENT OF INTERFERON DRIVEN INFLAMMATION” (The Provost, Fellows, Foundation Scholars and the other …, priority 2023, published 2025).
Counter-ions that a name gives are not always drawn.

Columns and labels:
BMDMs [1] = experiment: Seahorse XF Glycolysis Stress Test (ECAR); assay type: cell-based, mouse; settings: BMDMs pre-treated 3 h, LPS 4 h
Description: All compounds used DMSO as a vehicle except for 4-hydroxy tamoxifen (EtOH), NAC (PBS), and AOAA for tracing experiments (Media). LPS was used at a concentration of 100 ng/ml for indicated timepoints (2, 3, 4, 6, 8, 24, 48 h). FHIN1 (10 or 20 μM), MMF (50 or 100 μM), DMF (25 μM), AOAA (5 mM), oligomycin (10 μM), CCCP (50 μM) NAC (1 mM), and IMT1 (10 μM) pre-treatments were performed for 3 h prior the addition of LPS. Cells were treated with valinomycin (10 nM) 15 mins before LPS stimulation. Anti-CD210 or IgG control (10 μg/ml) antibodies were added to cells 1 h prior to LPS stimulation. Recombinant mouse IL-10 protein (100 ng/ml) was added to cells at the same time as LPS. Cells were treated with IFN-B1 (220 ng/ml) for 3 h. Cells were treated with C-178 (1 μM) 1 h prior to LPS stimulation or transfection with 2′3′-cGAMP (1.5 μg/ml) for 4 hrs to achieve cGAS-STING activation. Cells were treated with ODN 2088 (1 μM) for 1 hr prior to LPS stimulation or transfection with CPG ODN 1826 (1.5 μg/ml) to achieve TLR9 activation. 3 different timepoints of 4-hydroxy tamoxifen (TAM) (600 nM or 2 μM) or EtOH treatment were performed-these are specified in the individual figure legends. For ‘48 h’ treatments EtOH/TAM was added on day 5 of 6 during the BMDM differentiation protocol. On day 6 they were plated with EtOH/TAM (left overnight) and treated the following day. […]

human PBMCs = experiment: RT-qPCR gene expression in human PBMCs; assay type: cell-based; settings: LPS-stimulated human PBMCs, LPS 4 h
Description: Human blood samples from healthy donors were collected and processed at the School of Biochemistry and Immunology in TBSI (TCD). Blood samples were obtained anonymously and written informed consent for the use of blood for research purposes has been obtained from the donors. All the procedures involving experiments on human samples have been approved by the School of Biochemistry and Immunology Research Ethics Committee (TCD). Experiments were conducted according to the TCD guide on good research practice, which follows the guidelines detailed in the National Institutes of Health Belmont Report (1978) and the Declaration of Helsinki. […] The remaining pellet of mononuclear cells was resuspended, counted, and plated at 1×10^6 cells/ml in RPMI supplemented with FCS (10%) and penicillin/streptomycin (1%). […]
RNA extraction from cells was carried out using a Purelink™ RNA kit (Invitrogen) according to the manufacturer's instructions. […] Isolated RNA was quantified using a NanoDrop 2000 spectrophotometer, and RNA concentration was normalised to the lowest concentration across all samples with RNAse-free water. If necessary, samples were DNAse-treated after quantification using DNAse I (Thermo Fisher) according to the manufacturer's instructions. […]

BMDMs [2] = experiment: Immunofluorescence, Mitotracker Red and dsRNA; assay type: cell-based, mouse; settings: LPS 4 h
Description: All compounds used DMSO as a vehicle except for 4-hydroxy tamoxifen (EtOH), NAC (PBS), and AOAA for tracing experiments (Media). LPS was used at a concentration of 100 ng/ml for indicated timepoints (2, 3, 4, 6, 8, 24, 48 h). FHIN1 (10 or 20 μM), MMF (50 or 100 μM), DMF (25 μM), AOAA (5 mM), oligomycin (10 μM), CCCP (50 μM) NAC (1 mM), and IMT1 (10 μM) pre-treatments were performed for 3 h prior the addition of LPS. Cells were treated with valinomycin (10 nM) 15 mins before LPS stimulation. Anti-CD210 or IgG control (10 μg/ml) antibodies were added to cells 1 h prior to LPS stimulation. Recombinant mouse IL-10 protein (100 ng/ml) was added to cells at the same time as LPS. Cells were treated with IFN-B1 (220 ng/ml) for 3 h. Cells were treated with C-178 (1 μM) 1 h prior to LPS stimulation or transfection with 2′3′-cGAMP (1.5 μg/ml) for 4 hrs to achieve cGAS-STING activation. Cells were treated with ODN 2088 (1 μM) for 1 hr prior to LPS stimulation or transfection with CPG ODN 1826 (1.5 μg/ml) to achieve TLR9 activation. 3 different timepoints of 4-hydroxy tamoxifen (TAM) (600 nM or 2 μM) or EtOH treatment were performed-these are specified in the individual figure legends. For ‘48 h’ treatments EtOH/TAM was added on day 5 of 6 during the BMDM differentiation protocol. On day 6 they were plated with EtOH/TAM (left overnight) and treated the following day. For ‘72 h’ treatments EtOH/TAM was added on day […] of 6 during the BMDM differentiation protocol. On day 6 they were plated with EtOH/TAM (left overnight) and treated the following day. For ‘96 h’ treatments EtOH/TAM was added on day […] of 6 during the BMDM differentiation protocol. On day 6 they were plated with EtOH/TAM and treated 2 days later.
Cells were plated on 20 mm cover slips in 12-well plates. Cells were treated as required and Mitotracker Red CMXRos (100 nM, Thermo Fisher), was added to medium 30 mins prior to end of cell treatments. After 30 min incubation, cells were washed three times with warm PBS. Cells were subsequently fixed for 10 mins with 4% paraformaldehyde/PBS at 37° C. Cells were washed three times with PBS and permeabilized for 1 hour in block solution (1% BSA, 22.52 mg/ml glycine, 0.1% tween 20 in PBS). Anti-dsRNA antibody (Merck) was diluted 1/60 in block solution and incubated with cells overnight at room temperature. Cells were washed three times with PBS for 5 mins/wash. […] Images were analysed using the LAS X Life Science Microscope Software Platform (Leica). The same microscope instrument settings were used for all samples and all images were analysed using the same settings. […] Quantification of dsRNA or Mitotracker Red CMXRos signal intensity was performed using the measure function in ImageJ 1.53t (NIH).

SMILES	glycolysis (ECAR) (BMDMs [1])	IL10 expression (human PBMCs)	Tnfa expression (human PBMCs)	staining intensity of mitotracker RED (mtRED), MMP-dependent dye (BMDMs [2]; BMDMs pre-treated 3 h)	dsRNA accumulation (immunofluorescence) (BMDMs [2]; BMDMs pre-treated, relative to DMSO control)
COC(=O)/C=C/C(=O)OC [DMF, dimethyl fumarate]	suppressed glycolysis				
CCOC(=O)[C@@]12CCCC=C1N(Cc1ccc(-c3ccccc3)cc1)C(=O)[C@H]2CC(=O)NC [FHIN1, Fumarate hydratase-IN-1]		suppressed	increased	increased staining intensity	accumulation
